# Assays:
# [1] = tested on: Capan-1 (pancreatic cancer); experiment: Proliferation of different tumor cells: Capan-1; details: Homo sapiens
# [2] = tested on: MDA-MB-436 cells (BRCA1 gene defect); experiment: Inhibition of proliferation of MDA-MB-436 cells (CCK-8 and SRB method); details: Homo sapiens, MDA-MB-436, read-out: Cellular IC50 (nM) MDA-MB-436 (BRCA1gene defect)
# HCC-1937 (breast cancer) = experiment: Proliferation of different tumor cells: HCC-1937; details: for IC50: Homo sapiens, HCC1937
# [3] = background statement; cited from earlier work
# Capan-1 parental cell = experiment: Anti-proliferative effect on Capan-1 parental cell; details: Homo sapiens
# [4] = tested on: UWB1.289 (ovarian cancer); experiment: Proliferation of different tumor cells: UWB1.289; details: for IC50: UWB1289
# SW-620 (colon cancer) = experiment: Proliferation of different tumor cells: SW-620; details: for IC50: Homo sapiens
# [5] = tested on: Capan-1/AZD2281 drug resistant cell; experiment: cells; details: Homo sapiens
# [6] = tested on: Capan-1 cells (BRCA2 gene defect); experiment: Inhibition of proliferation of Capan-1 cells (CCK-8 and SRB method); details: Homo sapiens, CAPAN-1, read-out: Cellular IC50 (nM) Capan-1 (BRCA2gene defect)
# HCT-15 (colon cancer) = experiment: Proliferation of different tumor cells: HCT-15; details: for IC50: Homo sapiens
# PARP-1 = PARP-1 (Homo sapiens (Human), UniProt P09874); details: PARP-1 enzyme
# PARP-1, sequence (P09874 whole entry): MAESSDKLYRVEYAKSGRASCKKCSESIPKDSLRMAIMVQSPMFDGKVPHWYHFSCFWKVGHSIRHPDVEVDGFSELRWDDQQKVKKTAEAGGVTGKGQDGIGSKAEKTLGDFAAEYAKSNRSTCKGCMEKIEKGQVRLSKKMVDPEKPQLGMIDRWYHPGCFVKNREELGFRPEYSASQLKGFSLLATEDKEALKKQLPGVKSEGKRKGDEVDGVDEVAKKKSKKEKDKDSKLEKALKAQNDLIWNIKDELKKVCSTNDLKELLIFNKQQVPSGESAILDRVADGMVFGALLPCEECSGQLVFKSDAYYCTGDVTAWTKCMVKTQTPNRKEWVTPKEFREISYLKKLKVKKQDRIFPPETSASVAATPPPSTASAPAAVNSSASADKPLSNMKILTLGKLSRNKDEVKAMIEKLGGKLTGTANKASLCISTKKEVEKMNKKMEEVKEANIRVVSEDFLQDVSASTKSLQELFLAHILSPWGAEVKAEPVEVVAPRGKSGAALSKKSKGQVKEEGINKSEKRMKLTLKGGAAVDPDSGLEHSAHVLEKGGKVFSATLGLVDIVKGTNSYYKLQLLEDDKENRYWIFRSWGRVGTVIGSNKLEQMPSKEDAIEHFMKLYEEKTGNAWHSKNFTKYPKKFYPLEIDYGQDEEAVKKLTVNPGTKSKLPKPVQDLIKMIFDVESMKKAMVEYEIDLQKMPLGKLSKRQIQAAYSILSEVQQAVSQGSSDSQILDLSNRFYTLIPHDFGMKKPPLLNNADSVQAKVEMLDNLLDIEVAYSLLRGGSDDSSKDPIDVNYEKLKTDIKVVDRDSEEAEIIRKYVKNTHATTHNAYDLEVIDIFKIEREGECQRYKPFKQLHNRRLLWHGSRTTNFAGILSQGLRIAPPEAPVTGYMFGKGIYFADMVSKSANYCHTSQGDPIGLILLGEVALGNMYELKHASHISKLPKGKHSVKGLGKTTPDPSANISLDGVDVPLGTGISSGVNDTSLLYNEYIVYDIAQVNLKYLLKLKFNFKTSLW
Compound,IC50 [2] [nM],IC50 [6] [nM],also measured
"O=C(c1cc(Cc2n[nH]c(=O)c3ccccc23)ccc1F)N1CCN(C(=O)C2CC2)CC1 [AZD2281, olaparib, reference compound]",~200,~500,IC50 [1]: 653 nM; IC50 (HCC-1937 (breast cancer)): 7390 nM; bioavailability [3]: < 15%; in vivo action time and half-life time [3]: < 1 h; IC50 (Capan-1 parental cell): 2899 ± 17 nM; IC50 [4]: 177 nM; IC50 (SW-620 (colon cancer)): 5840 nM; IC50 [5]: 41100 ± 1590 nM; IC50 (HCT-15 (colon cancer)): > 10000 nM
CC1CN(C(=O)c2cc(Cc3n[nH]c(=O)c4ccccc34)ccc2F)Cc2nnc(C3CCNCC3)n21 (stereo not drawn) [Compound S3],< 200,< 200,–
CC1CN(C(=O)c2cc(Cc3n[nH]c(=O)c4ccccc34)ccc2F)Cc2nnc(-c3cccs3)n21 (stereo not drawn) [Compound S7],< 5,< 5,–
CC1CN(C(=O)c2cc(Cc3n[nH]c(=O)c4ccccc34)ccc2F)Cc2nnc(-c3c[nH]cn3)n21 (stereo not drawn) [Compound S8],< 20,< 20,–
CC1CN(C(=O)c2cc(Cc3n[nH]c(=O)c4ccccc34)ccc2F)Cc2nnc(-c3ncc[nH]3)n21 (stereo not drawn) [Compound S9],< 5,< 20,–
CC1CN(C(=O)c2cc(Cc3n[nH]c(=O)c4ccccc34)ccc2F)Cc2nnc(-c3nccn3C)n21 (stereo not drawn) [Compound S10],< 20,< 20,–
CC1CN(C(=O)c2cc(Cc3n[nH]c(=O)c4ccccc34)ccc2F)Cc2nnc(-c3cncs3)n21 (stereo not drawn) [Compound S11],< 20,< 20,–
CC1CN(C(=O)c2cc(Cc3n[nH]c(=O)c4ccccc34)ccc2F)Cc2nnc(-c3ccsc3)n21 (stereo not drawn) [Compound S12],< 20,< 20,–
CC1CN(C(=O)c2cc(Cc3n[nH]c(=O)c4ccccc34)ccc2F)Cc2nnc(-c3ccccn3)n21 (stereo not drawn) [Compound S13],< 5,< 5,IC50 [1]: 1.04 nM; Ratio IC50 AZD/IC50 S13 (HCC-1937 (breast cancer); HCC-1937): 338; IC50 (HCC-1937 (breast cancer)): 21.9 nM; IC50 (Capan-1 parental cell): < 0.256 nM; Ratio IC50 AZD/IC50 S13 ([4]; UWB1.289): 59; IC50 [4]: 3 nM; Ratio IC50 AZD/IC50 S13 (SW-620 (colon cancer)): 130; IC50 (SW-620 (colon cancer)): 45 nM; IC50 [5]: < 0.256 nM; Ratio IC50 AZD/IC50 S13 (HCT-15 (colon cancer)): 70; IC50 (HCT-15 (colon cancer)): 143 nM
CC1CN(C(=O)c2cc(Cc3n[nH]c(=O)c4ccccc34)ccc2F)Cc2nnc(-c3cnn(C)c3)n21 (stereo not drawn) [Compound S14],< 20,< 20,–
CC1CN(C(=O)c2cc(Cc3n[nH]c(=O)c4ccccc34)ccc2F)Cc2nnc(-c3nccs3)n21 (stereo not drawn) [Compound S15],< 5,< 5,–
CC1CN(C(=O)c2cc(Cc3n[nH]c(=O)c4ccccc34)ccc2F)Cc2nnc(-c3ccco3)n21 (stereo not drawn) [Compound S16],< 5,< 5,–
CC1CN(C(=O)c2cc(Cc3n[nH]c(=O)c4ccccc34)ccc2F)Cc2nnc(-c3ccc(CO)o3)n21 (stereo not drawn) [Compound S18],< 5,< 5,–
CC1CN(C(=O)c2cc(Cc3n[nH]c(=O)c4ccccc34)ccc2F)Cc2nnc(-c3cnccn3)n21 (stereo not drawn) [Compound S20],< 20,< 20,–
CC1CN(C(=O)c2cc(Cc3n[nH]c(=O)c4ccccc34)ccc2F)Cc2nnc(-c3ncccc3F)n21 (stereo not drawn) [Compound S33],< 20,< 20,–
C[C@@H]1CN(C(=O)c2cc(Cc3n[nH]c(=O)c4ccccc34)ccc2F)Cc2nnc(-c3ccccn3)n21 [S13-(+)],–,–,activity of (+)-S13 relative to (−)-S13 (PARP-1): twice

# — patent US10597399B2, “Substituted triazolopiperazine PARP inhibitor, preparation method therefor and use thereof” (Shanghai Institute of Materia Medica, Chinese Academy of …, priority 2015, dated 2020)
